Source: patent US8841233B2, “Herbicidal compositions comprising 4-amino-3-chloro-5-fluoro-6-(4-chloro-2-fluoro-3-methoxyphenyl) pyridine-2-carboxylic acid or a derivative thereof and 4-hydroxyphenyl-pyruvate dioxygenase (HPPD) inhibitors” (Dow Agrosciences LLC, priority 2012, dated 2014)

Experiments:
SCPJU = experiment: In-water applied weed control, transplanted paddy rice, greenhouse (Example II); assay type: in vivo, Schoenoplectus juncoides (Roxb.) Palla; conditions: 4.38 gae/ha
Description: Evaluation of in-Water Applied Herbicidal Mixtures for Weed Control in Transplanted Paddy Rice
Weed seeds or nutlets of the desired test plant species were planted in puddled soil (mud) prepared by mixing a shredded, non-sterilized mineral soil (50.5 percent silt, 25.5 percent clay, and 24 percent sand, with a pH of about 7.6 and an organic matter content of about 2.9 percent) and water at a 1:1 volumetric ratio. The prepared mud was dispensed in 365 mL aliquots into 16-ounce (oz.) non-perforated plastic pots with a surface area of 86.59 square centimeters (cm^2) leaving a headspace of 3 centimeters (cm) in each pot. Mud was allowed to dry overnight prior to planting or transplanting. Rice seeds were planted in Sun Gro MetroMix® 306 planting mixture, which typically has a pH of 6.0 to 6.8 and an organic matter content of about 30 percent, in plastic plug trays. Seedlings at the second or third leaf stage of growth were transplanted into 840 mL of mud contained in 32-oz. non-perforated plastic pots with a surface area of 86.59 cm^2 4 days prior to herbicide application. The paddy was created by filling the headspace of the pots with 2.5 to 3 cm of water. When required to ensure good germination and healthy plants, a fungicide treatment and/or other chemical or physical treatment was applied. The plants were grown for 4-22 days in a greenhouse with an approximate 14 h photoperiod which was maintained at about 29′C during the day and 26° C. during the night. Nutrients were added as Osmocote® (19:6:12, N:P:K+ minor nutrients) at 2 g per 16-oz. pot and 4 g per 32-oz. pot. […]
Treatment requirements for each compound or herbicidal component were calculated based upon the rates being tested, the concentration of active ingredient or acid equivalent in the formulation, an application volume of 2 mL per component per pot, and an application area of 86.59 cm^2 per pot.
For formulated compounds, a measured amount was placed in an individual 100 or 200 mL glass vial and was dissolved in a volume of 1.25% (v/v) Agri-Dex® crop oil concentrate to obtain application solutions. […]

XANST = experiment: Pre-emergence soil-applied weed control, greenhouse (Example III); assay type: in vivo, Xanthium strumarium L.
Description: Evaluation of Pre-emergence Soil-Applied Herbicidal Mixtures for Weed Control
Seeds or nutlets of the desired test plant species were planted in a soil matrix prepared by mixing a loam soil (32 percent silt, 23 percent clay, and 45 percent sand, with a pH of about 6.5 and an organic matter content of about 1.9 percent) and calcareous grit in an 80 to 20 ratio. The soil matrix was contained in plastic pots with a volume of 1 quart and a surface area of 83.6 square centimeters (cm^2).
Treatments consisted of the benzyl ester of 4-amino-3-chloro-5-fluoro-6-(4-chloro-2-fluoro-3-methoxy-phenyl)pyridine-2-carboxylic acid (compound A) formulated as an SC (suspension concentrate) and various herbicidal components alone and in combination. Forms of compound A were applied on an acid equivalent basis.
Other herbicidal components were applied on an acid equivalent or active ingredient basis and included the 4-hydroxyphenyl pyruvate dioxygenase (HPPD)-inhibiting herbicide, isoxaflutole, formulated as Balance Pro®.
Treatment requirements were calculated based upon the rates being tested, the concentration of active ingredient or acid equivalent in the formulation, and a 12 mL application volume at a rate of 187 L/ha.
For treatments comprised of formulated compounds, measured amounts of compounds were placed individually in 25 mL glass vials and diluted in a volume of 1.25% (v/v) Agri-Dex® crop oil concentrate (COC) to obtain 12× stock solutions. […] Application solutions were prepared by adding an appropriate amount of each stock solution (e.g., 1 mL) and diluted to the appropriate final concentrations with the addition of 10 mL of an aqueous mixture of 1.25% (v/v) COC so that the final spray solutions contained 1.25% (v/v) COC.
All stock solutions and applications solutions were visually inspected for compound compatibility prior to application. Spray solutions were applied to the soil with an overhead Mandel track sprayer equipped with a 8002E nozzles calibrated to deliver 187 L/ha over an application area of 0.503 m^2 at a spray height of 18 inches (46 cm) above average pot height. Control pots were sprayed in the same manner with the solvent blank.
The treated and control pots were placed in a greenhouse and top watered as needed. When required to ensure good germination and healthy plants, a fungicide treatment and/or other chemical or physical treatment was applied. […] After approximately 4 weeks, the condition of the test plants as compared with that of the untreated plants was determined visually and scored on a scale of 0 to 100 percent where 0 corresponds to no injury or growth inhibition and 100 corresponds to complete kill. […]

COc1c(Cl)ccc(-c2nc(C(=O)OCc3ccccc3)c(Cl)c(N)c2F)c1F [Compound A Benzyl Ester, benzyl ester of 4-amino-3-chloro-5-fluoro-6-(4-chloro-2-fluoro-3-methoxy-phenyl)pyridine-2-carboxylic acid]
Visual Weed Control (%) - 21 DAA SCPJU Obs (SCPJU): 70%
Visual Weed Control (%) - 32 DAA XANST Obs (XANST; 8 gae/ha): 33%
Visual Weed Control (%) - 32 DAA XANST Obs (XANST; 16 gae/ha): 35%
Visual Weed Control (%) - 32 DAA XANST Obs (XANST; 32 gae/ha): 65%
